Reference: patent US20230227409A1, “QUINOLINONE DERIVATIVES AS METHIONINE ADENOSYLTRANSFERASE 2A INHIBITORS” (IDEAYA BIOSCIENCES, INC., priority 2020, published 2023)
pIC50: −log10 of the molar value.

Each compound was assayed against T1, Human MAT2A (Homo sapiens, UniProt P31153) (assay: Phosphate Sensor Fluorescence Assay (Biologic Example A)). Conditions: MAT2A enzyme inhibition, Biological Example A; 500 uM L-methionine, 500 uM ATP; class symbols.
T1 construct: Human MAT2A: Cepter, amino acids 1-395; purchased Cepter clone ID 329, lot 00023-123; clone ID 334, lot 00023-148
Type: biochemical
Protocol: (§1) The ability of the compound of present disclosure to inhibit MAT2A enzyme was determined using a Phosphate Sensor Fluorescence Assay described below.
(§2) MAT2A enzyme is incubated with a test compound in DMSO or DMSO and its substrates (L-methionine and ATP) in a microtiter plate. The enzymatic reaction is stopped by the addition of Working Phosphate Sensor Mixture. The plate is analyzed for fluorescence at 450 nm. The high control (DMSO with enzyme and its substrates) gives high fluorescence which represents no inhibition of enzymatic activity while the low control (DMSO with MAT2A substrates and no enzyme) gives low fluorescence which represents full inhibition of enzymatic activity.
Human MAT2A: Cepter, amino acids 1-395
Assay Buffer: 50 mM Tris, pH 7.5/50 mM KCl/10 mM MgCl2/0.01% Brij-35/1 mM DTT/0.1% BGG/40 nM PNP/6 uM 7-MEG
MAT2A: 10 nM for Cepter clone ID 329, lot 00023-123 before the addition of Working Phosphate Sensor Mixture • 5 nM for Cepter clone ID 334, lot 00023-148 before the addition of Working Phosphate Sensor Mixture
(§3) L-methionine: 500 uM before the addition of Working Phosphate Sensor Mixture
ATP: 500 uM before the addition of Working Phosphate Sensor Mixture Procedure:
(§4) For the assay, a mixture of 1 mM L-methionine/1 mM ATP (2× final pre-stopped concentration) in assay buffer; MAT2A (2× final pre-stopped concentration) in Assay Buffer and Working Phosphate Sensor Mixture (1.5 uM Phosphate Sensor/30 mM EDTA in Assay Buffer, which is 3× final concentrations) were prepared. Test compounds or DMSO were added to the appropriate well suing D300e digital dispenser. 5 μl/well of Assay Buffer was added to the wells corresponding to the negative control and 5 μl/well of MAT2A was added to all the wells except for those corresponding to the negative control. After incubating the plate at room temperature for 15 minutes, 5 μl/well of the 1 mM L-methionine/1 mM ATP mixture was added to all wells. The plate was centrifuged at 1000 rpm for 1 minute and then incubated at room temperature for 1 hour. 5 μl of the Working Phosphate Sensor Mixture was added to all wells and the plate was centrifuged at 1000 rpm for 1 minute. The plate was read for fluorescence at 450 nm after exciting at 430 nm.
(§5) Percent inhibition was calculated in Chemical and Biological Information System (CBIS), (ChemInnovation Software Inc.). Curves were fitted by CBIS as % inhibition vs. log [compound concentration] using a 4-parameter inhibition model.
(§6) Fit=(A+((B−A)/(1+((C/x)^D))))
(§7) Compounds 1.001-1.021 were tested using the procedure described in Biological Example A, described above. Compounds 1.022-1.026 were tested using the procedure described in Biological Example B, described above.

T1 sequence (P31153 whole entry, the tested form may be a part): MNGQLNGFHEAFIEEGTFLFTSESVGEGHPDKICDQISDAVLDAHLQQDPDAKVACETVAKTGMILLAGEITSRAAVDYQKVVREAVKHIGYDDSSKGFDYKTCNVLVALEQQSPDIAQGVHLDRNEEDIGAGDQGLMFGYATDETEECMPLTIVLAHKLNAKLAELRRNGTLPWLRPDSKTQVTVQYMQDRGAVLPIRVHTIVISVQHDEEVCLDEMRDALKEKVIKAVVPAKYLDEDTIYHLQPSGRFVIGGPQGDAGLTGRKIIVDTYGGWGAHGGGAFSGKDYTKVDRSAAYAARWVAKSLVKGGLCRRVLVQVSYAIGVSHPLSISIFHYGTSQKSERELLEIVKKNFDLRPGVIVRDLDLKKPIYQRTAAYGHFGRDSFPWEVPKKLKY

COc1c(-c2ccccc2)c2cc(C(F)(F)F)ccc2[nH]c1=O [Compound 1.019, 3-methoxy-4-phenyl-6-(trifluoromethyl)quinolin-2(1H)-one] and O=c1[nH]c2ccc(C(F)(F)F)cc2c(-c2ccccc2)c1O [Compound 1.020, 3-hydroxy-4-phenyl-6-(trifluoromethyl)quinolin-2(1H)-one] fall in the same range of pIC50: 6.70 to 8.00 for the first, 6.70 to 8.00 for the second.

CCCNS(=O)(=O)c1c(-c2ccccc2)c2cc(Cl)ccc2[nH]c1=O [Compound 1.016, 6-chloro-2-oxo-4-phenyl-N-propyl-1,2-dihydroquinoline-3-sulfonamide] and CNS(=O)(=O)c1c(-c2ccccc2)c2cc(Cl)ccc2[nH]c1=O [Compound 1.014, 6-chloro-N-methyl-2-oxo-4-phenyl-1,2-dihydroquinoline-3-sulfonamide] fall in the same range of pIC50: 5.00 to 6.00 for the first, 5.00 to 6.00 for the second.

COc1c(-c2cccnc2)c2cc(Cl)ccc2[nH]c1=O [Compound 1.012, 6-chloro-3-methoxy-4-(pyridin-3-yl)quinolin-2(1H)-one] and COc1c(-c2ccccc2)c2cc(Cl)ccc2[nH]c1=O [Compound 1.004, 6-chloro-3-methoxy-4-phenylquinolin-2(1H)-one] fall in the same range of pIC50: 6.30 to 6.70 for the first, 6.30 to 6.70 for the second.

First: O=c1[nH]c2ccc(Cl)cc2c(-c2ccccc2)c1Sc1ncnc2sccc12 [Compound 1.006, 6-chloro-4-phenyl-3-(thieno[2,3-d]pyrimidin-4-ylthio)quinolin-2(1H)-one]
Second: O=c1[nH]c2ccccc2c(-c2ccccc2)c1Sc1ncnc2sccc12 [Compound 1.002]
The pIC50 of the first is lower: 5.00 to 6.00 for the first, 6.00 to 6.30 for the second.

COc1c(-c2ccccc2)c2cc(C3CC3)ccc2[nH]c1=O [Compound 1.011, 6-cyclopropyl-3-methoxy-4-phenylquinolin-2(1H)-one] and COc1c(-c2ccccc2)c2cc(Br)ccc2[nH]c1=O [Compound 1.009, 6-bromo-3-methoxy-4-phenylquinolin-2(1H)-one] fall in the same range of pIC50: 6.70 to 8.00 for the first, 6.70 to 8.00 for the second.

First: CS(=O)(=O)c1c(-c2ccccc2)c2cc(Cl)ccc2[nH]c1=O [Compound 1.005, 6-chloro-3-(methylsulfonyl)-4-phenylquinolin-2(1H)-one]
Second: O=c1[nH]c2ccc(Cl)cc2c(-c2ccccc2)c1O [Compound 1.010, 6-chloro-3-hydroxy-4-phenylquinolin-2(1H)-one]
The pIC50 of the first is lower: 5.00 to 6.00 for the first, 6.70 to 8.00 for the second.

First: CN(C)c1c(-c2ccccc2)c2cc(Cl)ccc2[nH]c1=O [Compound 1.008, 6-chloro-3-(dimethylamino)-4-phenylquinolin-2(1H)-one]
Second: O=c1[nH]c2ccc(Cl)cc2c(-c2ccccc2)c1S [Compound 1.015, 6-chloro-3-mercapto-4-phenylquinolin-2(1H)-one]
The pIC50 of the first is lower: 5.00 to 6.00 for the first, 6.70 to 8.00 for the second. The second is the more potent here.

O=c1[nH]c2ccc(Cl)cc2c(-c2ccccc2Cl)c1O [Compound 1.021, 6-chloro-4-(2-chlorophenyl)-3-hydroxyquinolin-2(1H)-one] and Cc1ccccc1-c1c(O)c(=O)[nH]c2ccc(Cl)cc12 [Compound 1.017, 6-chloro-3-hydroxy-4-(o-tolyl)quinolin-2(1H)-one] fall in the same range of pIC50: 6.70 to 8.00 for the first, 6.70 to 8.00 for the second.

O=c1[nH]c2ccc(Cl)cc2c(-c2ccccc2)c1Sc1nc2ccccc2s1 [Compound 1.013, 3-(benzo[d]thiazol-2-ylthio)-6-chloro-4-phenylquinolin-2(1H)-one] and O=c1[nH]c2ccc(Cl)cc2c(-c2ccccc2)c1S(=O)(=O)c1ccccc1 [Compound 1.003] fall in the same range of pIC50: 5.00 to 6.00 for the first, 5.00 to 6.00 for the second.

Cc1ccccc1-c1c(O)c(=O)[nH]c2ccc(C(F)(F)F)cc12 [Compound 1.018, 3-hydroxy-4-(o-tolyl)-6-(trifluoromethyl)quinolin-2(1H)-one] gave a pIC50 of 6.70 to 8.00.

Same assay, conditions: MAT2A enzyme inhibition, Biological Example A; 500 uM L-methionine, 500 uM ATP; given as bound

Work on Cn1c(=O)cc(-c2ccccc2)c2cc(Cl)ccc21 [Compound 1.001, 6-chloro-1-methyl-4-phenylquinolin-2(1H)-one] yielded a pIC50 of less than 5.00.

Same assay, conditions: MAT2A enzyme inhibition, Biological Example A; 500 uM L-methionine, 500 uM ATP; unit inferred

CNc1c(-c2ccccc2)c2cc(Cl)ccc2[nH]c1=O [Compound 1.007, 6-chloro-3-(methylamino)-4-phenylquinolin-2(1H)-one] showed a pIC50 of less than 5.00.

These compounds were tested against T1, Human MAT2A (assay: Phosphate Sensor Fluorescence Assay (Biologic Example B)). Conditions: MAT2A enzyme inhibition, Biological Example B; 5.8 nM MAT2A, 500 uM L-methionine, 500 uM ATP; class symbols.
Type: biochemical
Protocol: as §1, §2
MAT2A: 5.8 nM MAT2A (1-395), Cepter, clone ID 334, lot 00023-148 before the addition of Working Phosphate Sensor Mixture
as §3
ATP: 500 uM before the addition of Working Phosphate Sensor Mixture
as §4, with “well using a Beckman Coulter Echo 550 acoustic liquid handler. 10 µL/well” for “well suing D300e digital dispenser. 5 μl/well”, “and 10 µL/well” for “and 5 μl/well”, “minutes, 10 μL/well” for “minutes, 5 μl/well”, “hour. 10 μL” for “hour. 5 μl”, “430 nm on a Tecan Spark microplate reader.” for “430 nm.”
as §5, §6, §7

First: Cn1nccc1-c1c(O)c(=O)[nH]c2ccc(C(F)(F)F)cc12 [Compound 1.022, 3-Hydroxy-4-(1-methyl-1H-pyrazol-5-yl)-6-(trifluoromethyl)quinolin-2(1H)-one]
Second: Cc1ncccc1-c1c(O)c(=O)[nH]c2ccc(C(F)(F)F)cc12 [Compound 1.023, 3-Hydroxy-4-(2-methylpyridin-3-yl)-6-(trifluoromethyl)quinolin-2(1H)-one]
The pIC50 of the first is lower: 6.70 to 8.00 for the first, greater than 8.00 for the second. The second is the more potent here.

COc1cc(C(F)(F)F)cc2c(-c3ccccc3C)c(O)c(=O)[nH]c12 [Compound 1.024, 3-Hydroxy-8-methoxy-4-(o-tolyl)-6-(trifluoromethyl)quinolin-2(1H)-one] and Cc1ncccc1-c1c(O)c(=O)[nH]c2ccc(Cl)cc12 [Compound 1.026, 6-Chloro-3-hydroxy-4-(2-methylpyridin-3-yl)quinolin-2(1H)-one] fall in the same range of pIC50: 6.70 to 8.00 for the first, 6.70 to 8.00 for the second.

Cc1ncccc1-c1c(O)c(=O)[nH]c2ccc(Br)cc12 [Compound 1.025, 6-Bromo-3-hydroxy-4-(2-methylpyridin-3-yl)quinolin-2(1H)-one] gave a pIC50 of 6.70 to 8.00.
